Measurements from US8357697B2, “Substituted 3-isobutyl-9,10-dimethoxy-1,3,4,6,7,11b-hexahydro-2H-pyrido[2,1-A]isoquinolin-2-ol compounds and methods relating thereto” (Neurocrine Biosciences, Inc., priority 2006, dated 2013).
pKi: −log10 of the molar value. Values belong to the compound of their own block, whether it stands above or below them.

Key:
[1] = humans, background statement; cited from earlier work
human hepatocytes = test: Stability of compounds in human hepatocytes; format: in vitro ADME; conditions: 1 μM, 0-60 min, FIGS. 1a-1c
Method: Cryopreserved human hepatocytes from 12 individual donors were thawed according to the supplier's instruction and pooled. Cell viability was determined to be more than 85%. TBZ (1 μM) was incubated with individual human hepatocytes (1×10^6 cells/mL) at 37° C. with 95% O2 and 5% CO2 for 0, 5, 15, 30 and 60 min. TBZ in DMSO was added to achieve 1.0 μM (DMSO was less than 0.5% v/v). All concentrations and cell contents were relative to the final incubation volume of 100 μL. The incubation was terminated by mixing 100 μL of ice-cold acetonitrile in 1% formic acid containing dextromethorphan (1.0 μM) as internal standard for LC/MS analysis. Precipitated proteins were removed by centrifugation (1500-2500×g for 30 min at 15° C.).
Briefly, samples were separated with a gradient HPLC method by Acquity HPLC systems consisting of a pump, a column heater (40° C.), and a vacuum degasser/mobile phase tray. Mobile phase A was water in 0.1% formic acid and mobile phase B was acetonitrile in 0.1% formic acid. The gradient elution was as follows: mobile phase B: 0-10% at 0-0.75 min, 40-90% at 1.25-1.5 min, 90-0% at 1.75-2.0 min, and run time was 3 min. The reverse phase column was a BEH C18 column (50×2.1 mm, 1.7 μm). Flow rate was 0.8 mL/min and injection volume was 7.5 μL. The samples were monitored with API-3000 mass spectrometer and ESI ion source in positive mode, TBZ m/z 318.4>220.4, HTBZ m/z 320.3>302.3, and dextromethorphan m/z 272.2>147.2.

Dopamine D4.4 receptor = target: T1, Dopamine D4.4 receptor (Homo sapiens, UniProt P21917); test: Dopamine D4.4 receptor competition binding ([3H]spiperone); conditions: for inhibition at 1 µM: read-out: D4.4 (h) % inhibition at 1 uM; for inhibition at 10 µM: read-out: D4.4 (h) % inhibition at 10 uM
T1 construct: expressed in transfected cells; host or cells: CHO cells
T1 sequence (P21917 1-419): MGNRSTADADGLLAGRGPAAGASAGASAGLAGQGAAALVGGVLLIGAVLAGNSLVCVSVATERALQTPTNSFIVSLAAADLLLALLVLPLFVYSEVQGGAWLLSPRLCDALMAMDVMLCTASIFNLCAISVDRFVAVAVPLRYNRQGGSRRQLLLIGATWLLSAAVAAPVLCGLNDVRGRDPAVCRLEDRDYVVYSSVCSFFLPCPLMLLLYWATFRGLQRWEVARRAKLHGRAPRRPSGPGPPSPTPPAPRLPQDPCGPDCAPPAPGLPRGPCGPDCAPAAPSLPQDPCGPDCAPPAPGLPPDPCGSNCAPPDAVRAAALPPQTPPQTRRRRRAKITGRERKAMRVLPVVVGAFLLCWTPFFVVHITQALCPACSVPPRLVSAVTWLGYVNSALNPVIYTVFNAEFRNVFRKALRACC
Method: (§1) The four HTBZ stereoisomers and compounds of the present invention were tested for receptor specificity by screening against a panel of 80 receptors, ion channels and transporters (High-throughput profile, Cerep, S. A.).
(b) Dopamine D4.4 receptor:
(§2) Source: Human recombinant (CHO cells)
Ligand: [3H]spiperone, 0.3 nM
Incubation time/temperature: 60 min./22° C.
Non-specific ligand: (+)butaclamol (10 μM)
(§3) Quantitation method: Scintillation counting

Dopamine D2S receptor = target: T2, Dopamine D2S receptor (Homo sapiens, UniProt P14416); test: Dopamine D2S receptor competition binding ([3H]spiperone); conditions: for inhibition at 10 µM: read-out: D2S (h) % inhibition at 10 uM
T2 construct: expressed in transfected cells; host or cells: CHO cells
Method: as §1
(a) Dopamine D2S receptor:
Reference: Grandy et al., (1989) Proc. Natl. Acad. Sci. USA 86: 9762-6
as §2
Ligand: [3H]spiperone, 1.0 nM
Incubation time/temperature: 90 min/25° C.
Incubation buffer: 50 mM HEPES, 100 mM NaCl, 1 mM EDTA, 3 mM MgCl2, pH 7.4
Non-specific ligand: clozapine (10 μM)
Specific binding: 600 cpm
as §3

[2] = Stability in human liver microsomes; format: in vitro ADME; conditions: 1 μM, 0-60 min, FIGS. 2a-2f
Method: Briefly, pooled human liver microsomes (0.1 or 0.5 mg/mL; n>10; mixed gender) were incubated at 37° C. with the test compound in the presence of an NADPH-generating system containing 50 mM, pH 7.4 potassium phosphate buffer, 3 mM magnesium chloride, 1 mM EDTA, 1 mM NADP, 5 mM G-6-P, and 1 Unit/mL G-6-PD.
Incubations were conducted in six modified 2.0-mL, 96-well, deep-well plates in 1 μM of each compound (0.01% DMSO) with a total volume of 250 μl. Each plate, representing a single time point, contained 96 Titertube® Micro Tubes allowing for duplicates of 48 compounds at each time point (0, 5, 10, 20, 40, and 60 minutes). Reaction was stopped by the addition of an appropriate stop reagent (0.3 mL of acetonitrile containing a proprietary internal standard). Precipitated proteins were removed by centrifugation for 15 min at 3000 rpm, and the supernatant fluid (˜0.1 mL) was analyzed by LC/MS for the % of parent compound remaining.
Samples were separated with a gradient HPLC method by Agilent LC systems consisting of a pump, a column heater (40° C.), and a vacuum degasser/mobile phase tray. Mobile phase A was water in 0.1% formic acid and mobile phase B was acetonitrile in 0.1% formic acid. […] The samples were monitored with API-3000 mass spectrometer and ESI ion source in positive mode, TBZ m/z 318.4>220.4, HTBZ m/z 320.3>302.3, and dextromethorphan m/z 272.2>147.2.

[3] = Pharmacokinetic evaluation in dog, single oral dose; format: in vivo; conditions: oral 10 mg/kg (2-1), FIGS. 3c-3d
Method: In brief, a single oral dose (6.1 mg/kg for 3-1 and 10 mg/kg for 2-1) in 10% PEG in 0.25% methylcellulose in milli Q water was administered to dogs (3 dogs/dose) for a pharmacokinetic evaluation. Serial sampling was used to collect blood samples, which were taken from each treated animal at nine time points ranging from pre-dose to 24 hours post dose ([…]) for the oral administration. Plasma samples were stored at −80° C. or below until analysis.
Plasma samples were thawed on ice, and 50 μL of plasma was transferred to a 96-well plate. Plasma proteins were precipitated by addition of pre-chilled 150 μL acetonitrile (ACN) containing 75 ng/mL internal standard. Additional 50 μL of ACN/water (60:40) was added into each sample. […] The supernatant was collected and injected into a LC-MS/MS system for quantification. […] Quantification was performed by fitting peak area ratios to a weighted (1/x^2) linear calibration curve.
(§4) Descriptive pharmacokinetics were derived and evaluated based on the plasma concentrations of 3-1, 2-1 and 1d.1 from each individual […]. Pharmacokinetic parameters were determined using Non-Compartmental Analysis of the plasma concentration-time profiles of 3-1, 2-1 and 1d.1 in WinNonlin pharmacokinetic modeling software Professional Version 5.0.1 program (Pharsight Corporation, Mountain View, Calif.).

[4] = Pharmacokinetic evaluation in rat, single oral dose; format: in vivo
Method: In brief, single oral dose (10 mg/kg) of 2-1 and 3-1 in 10% PEG in 0.25% methylcellulose in milli Q water was administered to rats (3 rats/dose) for a pharmacokinetic evaluation. Serial sampling was used to collect blood samples, which were taken from each treated animal at nine time points ranging from pre-dose to 24 hours post dose (0, 0.25, 0.5, 1, 2, 4, 6, 8 and 24 hours) for the oral administration. Plasma samples were stored at −80° C. or below until analysis.
Plasma samples were thawed on ice, and 50 μL of plasma was transferred to a 96-well plate. Plasma proteins were precipitated by addition of pre-chilled 150 μL acetonitrile (ACN) containing 75 ng/mL internal standard. Additional 50 μL of ACN/water (60:40) was added into each sample. Calibration curve samples were prepared by a serial dilution in ACN/water (60:40). Fifty microliter of each standard sample was transferred to a 96-well plate followed by adding 150 μL acetonitrile (ACN) containing 75 ng/mL internal standard and 50 μL blank rat plasma. The plates were capped, mixed and centrifuged at 3000 rpm for 20 min. The supernatant was collected and injected into a LC-MS/MS system for quantification. […] of QC samples (4, 40, 400, 800 ng/ml) for 3-1,2-1 and 1d.1 were used as quality control for the studies needed and prepared in a same way as the standards. Quantification was performed by fitting peak area ratios to a weighted (1/x^2) linear calibration curve.
as §4

VMAT2 = target: T3, VMAT2 (Rattus norvegicus, UniProt Q01827); test: VMAT2 competition binding assay ([3H]-dihydrotetrabenazine); conditions: mean±SD, n in brackets; at least two independent experiments; read-out: pKi (n), VMAT2 affinity from competition binding studies (converted)
T3 construct: on rat forebrain homegenate (100 μg membrane protein per well); from tissue; host or cells: rat striatum (Procedure A, vesicles) or Sprague-Dawley rat forebrain homogenate (Procedure B)
Method: Preparation of Rat Striatal Vesicles
Rat striata from three rats are pooled and homogenized in 0.32 M sucrose. The homogenate is then centrifuged at 2,000×g for 10 min at 4° C. and the resulting supernatant is centrifuged at 10,000×g for 30 min at 4° C. The resulting pellet containing the enriched synaptosomal fraction (2 mL) is subjected to osmotic shock by addition of 7 mL of distilled H2O, and subsequently the suspension is homogenized. The osmolarity is restored by the addition of 0.9 mL of 0.25 M HEPES and 0.9 mL of 1.0 M neutral L-(+)-tartaric acid dipotassium salt buffer (pH 7.5), followed by a 20 min centrifugation (20,000×g at 4° C.). […]
Aliquots of the vesicle suspension (0.16 mL, 15 μg of protein/mL) are incubated with competitor compounds (ranging from 1E-6M to 1E-12M) and 2 nM [^3H]-dihydrotetrabenazine (HTBZ; specific activity: 20 Ci/mmol, American Radiolabeled Chemicals, Inc) for 1 h at room temperature in a total volume of 0.5 mL. […] Nonspecific binding is determined using 20 μM tetrabenazine (TBZ). […] Bound radioactivity is determined by scintillation spectrometry.
Following incubation at 25° C. for two hours, bound radioligand was collected by rapid filtration onto GF/B glass fiber filters using a Unifilter-96 Harvester (PerkinElmer). […] Bound radioligand was quantified by scintillation counting using a Topcount NXT (PerkinElmer). […]

[5] = Stability in rat liver microsomes; format: in vitro ADME; conditions: 1 μM, 0-60 min, FIGS. 2a-2f
[6] = Stability in dog liver microsomes; format: in vitro ADME; conditions: 1 μM, 0-60 min, FIGS. 2a-2f
[7] = tested on: panel of 80 receptors, ion channels and transporters; test: Receptor selectivity binding assays (Cerep high-throughput profile); conditions: versus the dopamine receptors tested
Method: as §1

T2 sequence (P14416 1-414 isoform P14416-2): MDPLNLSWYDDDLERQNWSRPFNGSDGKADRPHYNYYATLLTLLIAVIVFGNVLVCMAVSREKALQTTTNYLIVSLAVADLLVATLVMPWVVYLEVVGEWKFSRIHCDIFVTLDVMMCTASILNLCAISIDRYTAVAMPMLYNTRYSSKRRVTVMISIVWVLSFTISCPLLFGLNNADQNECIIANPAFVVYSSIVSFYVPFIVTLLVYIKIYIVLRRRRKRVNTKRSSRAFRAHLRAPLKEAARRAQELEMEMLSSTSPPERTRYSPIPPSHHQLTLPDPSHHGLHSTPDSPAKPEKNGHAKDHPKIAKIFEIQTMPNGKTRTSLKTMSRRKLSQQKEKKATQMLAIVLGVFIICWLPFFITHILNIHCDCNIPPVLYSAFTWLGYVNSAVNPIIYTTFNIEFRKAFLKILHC
T3 sequence (Q01827 whole entry): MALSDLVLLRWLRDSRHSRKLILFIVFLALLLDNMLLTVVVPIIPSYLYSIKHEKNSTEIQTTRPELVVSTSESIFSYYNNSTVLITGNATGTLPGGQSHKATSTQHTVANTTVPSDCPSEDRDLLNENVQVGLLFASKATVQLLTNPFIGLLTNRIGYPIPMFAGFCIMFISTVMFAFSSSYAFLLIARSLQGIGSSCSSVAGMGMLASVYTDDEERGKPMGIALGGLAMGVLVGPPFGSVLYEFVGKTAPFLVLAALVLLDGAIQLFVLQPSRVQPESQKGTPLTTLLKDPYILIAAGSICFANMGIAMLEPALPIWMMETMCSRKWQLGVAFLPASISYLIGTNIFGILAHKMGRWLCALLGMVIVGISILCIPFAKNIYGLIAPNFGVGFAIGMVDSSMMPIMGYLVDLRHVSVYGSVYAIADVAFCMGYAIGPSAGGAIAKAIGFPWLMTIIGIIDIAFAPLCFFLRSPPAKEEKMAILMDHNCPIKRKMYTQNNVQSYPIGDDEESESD

SMILES: COc1cc2c(cc1OC)C1CC(=O)C(CC(C)C)CN1CC2 (racemic) [Tetrabenazine, 3-Isobutyl-9,10-dimethoxy-1,3,4,6,7,11b-hexahydro-2H-pyrido[2,1-a]isoquinolin-2-one, reference compound]
- bioavailability [1]: fairly low and variable
- conversion in human hepatocytes to HTBZ (tetrabenazine) or to 1d.1 (compounds 2-1, 3-1) (human hepatocytes): rapid

SMILES: COc1cc2c(cc1OC)[C@H]1C[C@@H](O)[C@H](CC(C)C)CN1CC2 [2R, 3R, 11bR-HTBZ, (2R,3R,11bR)-3-isobutyl-9,10-dimethoxy-1,3,4,6,7,11b-hexahydro-2H-pyrido[2,1-a]isoquinolin-2-ol]
- inhibition at 1 µM (Dopamine D4.4 receptor): 0%
- inhibition at 10 µM (Dopamine D2S receptor): -6%

SMILES: COc1cc2c(cc1OC)[C@H]1C[C@H](O)[C@H](CC(C)C)CN1CC2 [2S, 3R, 11bR-HTBZ, (2S,3R,11bR)-3-isobutyl-9,10-dimethoxy-1,3,4,6,7,11b-hexahydro-2H-pyrido[2,1-a]isoquinolin-2-ol]
- inhibition at dopamine D4.4 receptor (in words) (Dopamine D4.4 receptor): some minor inhibition
- inhibition at 10 µM (Dopamine D4.4 receptor): 30%
- binding/inhibition at D2(S) (in words) (Dopamine D2S receptor): some minor inhibition
- inhibition at 30 µM (Dopamine D2S receptor; read-out: D2S (h) % inhibition at 30 uM): 17%

SMILES: COc1cc2c(cc1OC)[C@H]1C[C@@H](OC(=O)[C@@H](N)C(C)C)[C@H](CC(C)C)CN1CC2 [Compound 2-1, (S)-2-Amino-3-methyl-butyric acid (2R,3R,11bR)-3-isobutyl-9,10-dimethoxy-1,3,4,6,7,11b-hexahydro-2H-pyrido[2,1-a]isoquinolin-2-yl ester]
- conversion to 1d.1 in human liver microsomes, compared with compound 3-1 [2]: slower
- plasma half-life of 1d.1 upon oral administration of compound 2-1 relative to compound 3-1 [3]: 2-3 times
- plasma half-life of 1d.1 upon oral administration of compound 2-1 relative to compound 3-1 ([4]; oral 10 mg/kg, FIGS. 3a-3b): 2-3 times
- inhibition at 10 µM (Dopamine D4.4 receptor): 13%
- Ki (VMAT2): 200 nM
- conversion to 1d.1 in rat liver microsomes, compared with compound 3-1 [5]: slower
- conversion to 1d.1 in dog liver microsomes, compared with compound 3-1 [6]: slower
- conversion in human hepatocytes to HTBZ (tetrabenazine) or to 1d.1 (compounds 2-1, 3-1) (human hepatocytes): comparatively slow
- inhibition at 10 µM (Dopamine D2S receptor): 2%
- selectivity for VMAT2 (in words) [7]: demonstrated selectivity for VMAT2

SMILES: CCOC(=O)O[C@@H]1C[C@@H]2c3cc(OC)c(OC)cc3CCN2C[C@H]1CC(C)C [Compound 3-1, Carbonic acid ethyl ester (2R,3R,11bR)-3-isobutyl-9,10-dimethoxy-1,3,4,6,7,11b-hexahydro-2H-pyrido[2,1-a]isoquinolin-2-yl ester]
- parent compound in rat plasma after oral administration ([4]; oral 10 mg/kg, limit of quantification 1 ng/mL): No 3-1 was detected
- rat plasma concentration time profile of 1d.1 from 3-1 compared with 1d.1 administered orally ([4]; oral, FIG. 3a): indistinguishable
- inhibition at 10 µM (Dopamine D4.4 receptor): 15%
- Ki (VMAT2): 12.6 nM
- conversion in human hepatocytes to HTBZ (tetrabenazine) or to 1d.1 (compounds 2-1, 3-1) (human hepatocytes): rapid
- inhibition at 10 µM (Dopamine D2S receptor): 15%
- selectivity for VMAT2 (in words) [7]: demonstrated selectivity for VMAT2

Further lines, results first:

- pKi (Dopamine D4.4 receptor): 7.17
- pKi (Dopamine D2S receptor): 7.24
- binding/inhibition at D2(S) (in words) (Dopamine D2S receptor): high affinity binding
SMILES: COc1cc2c(cc1OC)[C@@H]1C[C@@H](O)[C@@H](CC(C)C)CN1CC2 [2R, 3S, 11bS-HTBZ]

- inhibition at 1 µM (Dopamine D4.4 receptor): 9%
- pKi (Dopamine D2S receptor): 6.72
- binding/inhibition at D2(S) (in words) (Dopamine D2S receptor): high affinity binding
SMILES: COc1cc2c(cc1OC)[C@@H]1C[C@H](O)[C@@H](CC(C)C)CN1CC2 [2S, 3S, 11bS-HTBZ]
